pIC50: −log10 of the molar value. Read-outs that look alike come from different tables or passages of the source.
How the values were obtained:
[1] = test system: H241: dengue virus serotype 4; assay: Dendritic Cells Infection Assay (viral RNA by real time PCR); type: cell-based; conditions: Dendritic cell, human primary immature monocyte derived dendritic cells, MOI 2, 24 h, dengue RNA relative to 18S rRNA
Protocol: Cryopreserved human immature monocyte derived Dendritic Cells (iDC) from individual donors were obtained from Stemcell Technologies (CAT# PB-DC001F). iDC were counted and incubated at a concentration of 15,000 cells/well (96 well plate) in RPMI 1640 media containing 10% (v/v) fetal bovine serum (FBS), 1% (v/v) penicillin/streptomycin (Invitrogen™) for 48 h at 37° C. in a 90% humidified, 5% CO2 atmosphere prior to the start of the experiment.
In a 96 well flat-bottom plate, 15000 iDC from individual donors were infected with dengue virus at a multiplicity of infection (MOI) of 2 in a volume of 50 μl for 2 h. After Infection iDCs were washed and cultured in complete RPMI media in the presence of serially diluted compounds. Each virus/drug combination was tested either in duplicate or triplicate (Depending on the availability of iDC from individual donors). Plates were incubated for 24 h at 37° C. in a 90% humidified, 5% CO2 atmosphere. After 24 h cells were washed and cellular RNA were isolated. Viral RNA and endogenous 18S rRNA control (Applied Bio Systems) was quantified by a real time PCR assay. The viability of mock-infected and infected iDC were monitored at described time points using a CellTiter Glo® (promega) assay according to manufacturer's recommendation.
Cellular RNA was isolated by PerfectPure™ RNA 96 cell kit (5 PRIME) according to manufacturer's recommendation. Transcriptor First Strand cDNA Synthesis Kit (Roche) was used to generate cDNA using random hexamer primers. […] First ΔCt was calculated by subtracting the 18S rRNA CT value from the dengue RNA CT value. ΔCts from duplicate taqman assay were averaged. […] Relative quantification was calculated using the following formula. Relative quantification=2^−averageΔΔCT. […]

dengue [2] = conditions: cited from earlier work
dengue [3] = conditions: by inhibiting the dengue 2′-O-methyltransferase NS5 domain; cited from earlier work
dengue [4] = conditions: mouse model; cited from earlier work

With C[C@H](NP(=O)(OC[C@@]1(N=[N+]=[N-])O[C@@H](n2cnc3c(N)ncnc32)[C@H](O)[C@@H]1O)Oc1ccccc1)C(=O)OCc1ccccc1 (stereo partly drawn) [Compound I-2, (S)-2-{[(2R,3S,4R,5R)-5-(6-Amino-purin-9-yl)-2-azido-3,4-dihydroxy-tetrahydro-furan-2-ylmethoxy]-phenoxy-phosphorylamino}-propionic acid benzyl ester] the pIC50 [1] was 5.72.

Work on [N-]=[N+]=N[C@]1(COP(=O)(N[C@@H](Cc2ccccc2)C(=O)OCc2ccccc2)Oc2cccc3ccccc23)O[C@@H](n2ccc(=O)[nH]c2=O)[C@H](O)[C@@H]1O (stereo partly drawn) [Compound I-9, (S)-2-[[(2R,3S,4R,5R)-2-Azido-5-(2,4-dioxo-3,4-dihydro-2H-pyrimidin-1-yl)-3,4-dihydroxy-tetrahydro-furan-2-ylmethoxy]-(naphthalen-1-yloxy)-phosphorylamino]-3-phenyl-propionic acid benzyl ester] yielded a pIC50 [1] of 4.80.

CCOC(=O)[C@H](Cc1ccccc1)NP(=O)(OC[C@@]1(N=[N+]=[N-])O[C@@H](n2ccc(=O)[nH]c2=O)[C@H](O)[C@@H]1O)Oc1cccc2ccccc12 (stereo partly drawn) [Compound I-10, (S)-2-[[(2R,3S,4R,5R)-2-Azido-5-(2,4-dioxo-3,4-dihydro-2H-pyrimidin-1-yl)-3,4-dihydroxy-tetrahydro-furan-2-ylmethoxy]-(naphthalen-1-yloxy)-phosphorylamino]-3-phenyl-propionic acid ethyl ester] showed a pIC50 [1] of 4.82.

For NC(=O)c1ncn([C@@H]2O[C@H](CO)[C@@H](O)[C@H]2O)n1 [Ribavirin], the adverse effects (dengue [2]; mouse model or rhesus monkey model, text does not say which) is listed as “induced anemia and thrombocytosis”, the protection against dengue (dengue [2]; rhesus monkey model) is listed as “did not show protection” and the “activity against dengue in tissue culture” value (dengue [3]) is listed as “works against dengue in tissue culture”. The protection against dengue (dengue [4]) was “did not show protection”.

From patent US20160168186A1, “Method of Treating Dengue Fever” (RIBOSCIENCE LLC, priority 2011, published 2016)
